For 15 compounds, IC50 results are on record in patent US11111243B2, “Azaindole compounds as histone methyltransferase inhibitors” (GLOBAL BLOOD THERAPEUTICS, INC., priority 2017, dated 2021).

Each structure is given as a SMILES string. pIC50: −log10 of the molar value. Structures can show the parent of a compound that is named as a salt.

For the test, the target named is T1, G9a (Homo sapiens, UniProt Q96KQ7).
T1 sequence (Q96KQ7 1-1210): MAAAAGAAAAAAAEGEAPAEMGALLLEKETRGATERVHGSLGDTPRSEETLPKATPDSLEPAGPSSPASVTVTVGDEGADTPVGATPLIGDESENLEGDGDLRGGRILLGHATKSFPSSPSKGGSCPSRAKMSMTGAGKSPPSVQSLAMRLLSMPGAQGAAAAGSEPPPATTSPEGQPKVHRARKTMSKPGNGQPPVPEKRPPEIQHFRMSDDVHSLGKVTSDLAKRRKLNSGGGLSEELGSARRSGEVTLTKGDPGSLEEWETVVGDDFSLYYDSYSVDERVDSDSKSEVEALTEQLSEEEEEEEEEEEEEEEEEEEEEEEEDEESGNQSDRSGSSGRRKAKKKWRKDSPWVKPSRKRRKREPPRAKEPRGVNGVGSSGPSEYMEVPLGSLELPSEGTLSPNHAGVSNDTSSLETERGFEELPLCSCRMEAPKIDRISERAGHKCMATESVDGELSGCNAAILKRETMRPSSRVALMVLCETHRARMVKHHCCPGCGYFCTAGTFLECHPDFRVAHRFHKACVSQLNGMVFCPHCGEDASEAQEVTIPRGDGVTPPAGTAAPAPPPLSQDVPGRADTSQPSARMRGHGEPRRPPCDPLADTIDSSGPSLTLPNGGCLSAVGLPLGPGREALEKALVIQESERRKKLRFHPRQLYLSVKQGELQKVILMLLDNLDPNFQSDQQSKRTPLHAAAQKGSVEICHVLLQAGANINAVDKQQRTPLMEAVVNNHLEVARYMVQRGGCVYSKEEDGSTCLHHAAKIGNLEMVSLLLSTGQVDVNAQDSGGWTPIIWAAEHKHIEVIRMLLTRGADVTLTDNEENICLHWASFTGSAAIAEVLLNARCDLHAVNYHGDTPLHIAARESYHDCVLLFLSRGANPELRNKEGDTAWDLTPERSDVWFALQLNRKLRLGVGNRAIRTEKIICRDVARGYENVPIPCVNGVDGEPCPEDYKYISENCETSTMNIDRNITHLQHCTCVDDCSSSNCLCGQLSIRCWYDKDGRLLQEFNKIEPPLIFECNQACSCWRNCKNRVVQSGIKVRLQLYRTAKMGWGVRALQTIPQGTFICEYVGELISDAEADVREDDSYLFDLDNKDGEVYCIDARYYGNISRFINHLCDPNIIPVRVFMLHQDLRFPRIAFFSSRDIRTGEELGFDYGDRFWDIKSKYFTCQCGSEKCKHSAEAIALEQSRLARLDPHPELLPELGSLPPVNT
Put plainly: G9a AlphaLISA enzymatic activity assay. Type of test: biochemical. The note with it: 0.15 nM G9a, 10 uM S-adenosyl-methionine, 100 nM biotinylated histone 3 peptide (1-21), 1 h room temperature. In short, it runs like this:
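Reaction of 0.15 nM G9a with 10 uM SAM and 100 nM biotinylated histone H3 (1-21) peptide in 50 mM Tris-HCl pH9, 50 mM NaCl, 0.01% Tween-20, 1 mM DTT, 1 h at room temperature. H3K9me2 detected by AlphaLISA (anti-H3K9me2 acceptor, streptavidin donor beads, 615 nm); IC50 from percent inhibition across dilutions.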
For orientation: In Alpha technology, singlet oxygen from a donor bead excites a nearby acceptor bead.

The term pIC50 denotes the negative decadic logarithm of the IC50, by convention in mol/L. Lower therefore signals a high IC50.

In turn, `COc1cc2c(cc1OCCCN1CCCC1)[nH]c1cnccc12` [Compound 28, 1-[3-({6-methoxy-9H-pyrido[3,4-b]indol-7-yl}oxy)propyl]pyrrolidine hydrochloride] showed a pIC50 of 7.22.

The compound `CCCc1nccc2[nH]c3cc(OCCCN(C)C)c(OC)cc3c12` [Compound 55, [3-({8-methoxy-1-propyl-5H-pyrido[4,3-b]indol-7-yl}oxy)propyl]dimethylamine hydrochloride] showed a pIC50 of 7.74. On to `COc1cc2c(cc1OCCCN1CCCC1)[nH]c1ccnc(C)c12` [Compound 29, 1-[3-({8-methoxy-1-methyl-5H-pyrido[4,3-b]indol-7-yl}oxy)propyl]pyrrolidine hydrochloride], for which the negative logarithm of the IC50 (pIC50) is 8.92. The compound `COc1cc2c(cc1OCCCN1CCCC1)[nH]c1ccnc(-c3cn[nH]c3)c12` [Compound 81, 4-[8-methoxy-7-[3-(pyrrolidin-1-yl)propoxy]-5H-pyrido[4,3-b]indol-1-yl]-1H-pyrazole hydrochloride] gave a pIC50 of 7.66. This pIC50 is 1.26 log units lower than that of the compound before.

In turn, `CCN(CC)CCCOc1cc2[nH]c3ccnc(C4CC4)c3c2cc1OC` [Compound 102, [3-({1-cyclopropyl-8-methoxy-5H-pyrido[4,3-b]indol-7-yl}oxy)propyl]diethylamine hydrochloride] showed a pIC50 of 6.85.

On to `CCOCCNc1nccc2[nH]c3cc(OCCCN4CCCC4)c(OC)cc3c12` [Compound 20, N-(2-ethoxyethyl)-8-methoxy-7-[3-(pyrrolidin-1-yl)propoxy]-5H-pyrido[4,3-b]indol-1-amine], for which the pIC50 was 8.15.

As to `COc1cc2c(cc1OCCCN(C)C)[nH]c1ccnc(C#CC3CC3)c12` [Compound 51, (3-{[1-(2-cyclopropylethynyl)-8-methoxy-5H-pyrido[4,3-b]indol-7-yl]oxy}propyl)dimethylamine hydrochloride], the pIC50 is 6.33. Next, `COc1cc2c(cc1OCCCN1CCCC1)[nH]c1ccnc(-c3ccncc3)c12` [Compound 23, 8-methoxy-1-(pyridin-4-yl)-7-(3-(pyrrolidin-1-yl)propoxy)-5H-pyrido[4,3-b]indole]: 7.00. Next, `COc1cc2c(cc1OCCCN1CCCC1)[nH]c1ncncc12` [Compound 22, 1-[3-({6-methoxy-9H-pyrimido-[4,5-b]indol-7-yl}oxy)propyl]-pyrrolidine]: 6.24; `COc1cc2c(cc1OCCCN1CCCC1)[nH]c1ccnc(CO)c12` [Compound 82, 8-methoxy-7-[3-(pyrrolidin-1-yl)propoxy]-5H-pyrido[4,3-b]indol-1-yl]methanol trifluoroacetate]: 8.35. With `COc1cc2c(cc1OCCCN(C)C)[nH]c1ccnc(C3CC3)c12` [Compound 47, [3-({1-cyclopropyl-8-methoxy-5H-pyrido[4,3-b]indol-7-yl}oxy)propyl]dimethylamine hydrochloride], the pIC50 was 8.03. In the case of `COc1cc2c(cc1OCCCN1CCCC1)[nH]c1c(Cl)cnc(N3CCCC3)c12` [Compound 86, 1-{4-chloro-8-methoxy-7-[3-(pyrrolidin-1-yl)propoxy]-5H-pyrido[4,3-b]indol-1-yl}pyrrolidine hydrochloride], the pIC50 is 6.74. Next, `COc1cc2c(cc1OCCCN1CCCC1)[nH]c1ccnc(-c3cnc[nH]3)c12` [Compound 84, 1-(1H-imidazol-5-yl)-8-methoxy-7-(3-(pyrrolidin-1-yl)propoxy)-5H-pyrido[4,3-b]indole trifluoroacetate]: 7.77; `COc1cc2c(cc1OCCCN1CCCC1)[nH]c1c(C)cnc(N3CCCC3)c12` [Compound 89, 1-{8-methoxy-4-methyl-7-[3-(pyrrolidin-1-yl)propoxy]-5H-pyrido[4,3-b]indol-1-yl}pyrrolidine hydrochloride]: 7.92. Consider `COc1cc2c(cc1OCCCN1CCCC1)[nH]c1ccnc(N3CC4CCC(C3)O4)c12` [Compound 19, 3-{8-methoxy-7-[3-(pyrrolidin-1-yl)propoxy]-5H-pyrido[4,3-b]indol-1-yl}-8-oxa-3-azabicyclo[3.2.1]octane], for which the pIC50 is 6.52.
